# Experimental data reported in patent publication US20050014685A1, “New compound” (FUJISAWA PHARMACEUTICAL CO., LTD., priority 2003, published 2005).
# *1 amine or outer side, *2 acyl side, *3 side chain or, on linkers, in order; H or OH if unused. Where a SMILES comes first, the peptide text is derived from it. Bridges are numbered along the chain shown (N, C = ends). [ ]: non-standard residue; d: D form. The star is where a group is joined. X2 = C[C@H]1CC[C@@H](N2CCN(c3ccc(-c4nnc(-c5ccc(C(=O)*)cc5)s4)cc3)CC2)CC1; X1 = O=C(c1ccc(-c2nnc(-c3ccc(N4CCN(C5CCCCC5)CC4)cc3)s2)cc1)*; Orn(3R-OH,Nδ-CH(CH2OH)2) = N[C@H](C(=O)O)[C@H](O)CCNC(CO)CO; hTyr(βR-OH,3-OMe) = COc1cc(C[C@@H](O)[C@H](N)C(=O)O)ccc1O; Orn(4R-OH) = O=C([C@H](C[C@@H](O)CN[*:3])N[*:1])[*:2]; Pro(3S-OH,4S-Me) = C[C@H]1CN[C@H](C(=O)O)[C@H]1O; Orn(3R-OH) = NCC[C@@H](O)[C@H](N)C(=O)O; Hyp = O=C(O)[C@@H]1C[C@@H](O)CN1
# System: Candida albicans FP-633
# Format: cell-based
# Details: FP-633, pH 7.3
# Method: In vitro antimicrobial activity of the object compound of Examples 1, 7, 12 and 19 disclosed later was determined by MICs in mouse serum as described below.
# The MIC5 in mouse serum were determined by the microdilution method using ICR mouse serum buffered with 20 mM HEPES buffer (pH 7.3) as a test medium. Inoculum suspension of 10^6 cells/ml were prepared by a hemocytometric procedure and diluted to obtain an inoculum size of approximately 1.0×10^3 cells/ml. Microplates were incubated at 37° C. for […] in 5% CO2. The MICs was defined as the lowest concentrations at which no visible growth was observed.
row,SMILES,MIC [µg/mL]
1,"COc1cc(C[C@@H](O)[C@@H]2NC(=O)[C@@H]3C[C@@H](O)CN3C(=O)[C@H]([C@@H](C)O)NC(=O)[C@@H](NC(=O)c3ccc(-c4nnc(-c5ccc(N6CCN([C@H]7CC[C@@H](C)CC7)CC6)cc5)s4)cc3)C[C@@H](O)CNC(=O)[C@@H]3[C@@H](O)[C@@H](C)CN3C(=O)[C@H]([C@H](O)CCNC(CO)CO)NC2=O)ccc1O [Example 19] (X2-[Orn(4R-OH)]T[Hyp][hTyr(βR-OH,3-OMe)][Orn(3R-OH,Nδ-CH(CH2OH)2)][Pro(3S-OH,4S-Me)]; lactam 1-C)",<0.2
2,"COc1cc(C[C@@H](O)[C@@H]2NC(=O)[C@@H]3C[C@@H](O)CN3C(=O)[C@H]([C@@H](C)O)NC(=O)[C@@H](NC(=O)c3ccc(-c4nnc(-c5ccc(N6CCN([C@H]7CC[C@@H](C)CC7)CC6)cc5)s4)cc3)C[C@@H](O)CNC(=O)[C@@H]3[C@@H](O)[C@@H](C)CN3C(=O)[C@H]([C@H](O)CCN)NC2=O)ccc1O [Example 1] (X2-[Orn(4R-OH)]T[Hyp][hTyr(βR-OH,3-OMe)][Orn(3R-OH)][Pro(3S-OH,4S-Me)]; lactam 1-C)",<0.2
3,"COc1cc(C[C@@H](O)[C@@H]2NC(=O)[C@@H]3C[C@@H](O)CN3C(=O)[C@H]([C@@H](C)O)NC(=O)[C@@H](NC(=O)c3ccc(-c4nnc(-c5ccc(N6CCN(C7CCCCC7)CC6)cc5)s4)cc3)C[C@@H](O)CNC(=O)[C@@H]3[C@@H](O)[C@@H](C)CN3C(=O)[C@H]([C@H](O)CCN)NC2=O)ccc1O [Example 7] (X1-[Orn(4R-OH)]T[Hyp][hTyr(βR-OH,3-OMe)][Orn(3R-OH)][Pro(3S-OH,4S-Me)]; lactam 1-C)",<0.2
